Test [1] relates to TLR2 induced IL-6 in peripheral blood mononuclear cells (PBMCs). Kind of test: PBMC TLR2 Induced IL-6 Assay. Format: cell-based, human. The conditions noted are these: human PBMCs, 10 μg/ml lipoteichoic acid for 5 hours, IL-6 by ELISA, value without asterisk, read-out: Cell IC50. The method, boiled down: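 IL-6 ELISA of supernatants after a 5 h challenge with the TLR2 agonist lipoteichoic acid (10 μg/ml). Before stimulation, human PBMCs (250000 cells/well; RPMI, 10% heat-inactivated FCS) received compound for 30 min at 37° C. Values given as IC50 or EC50.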

Test [2] addresses IRAK4 (Homo sapiens (Human), UniProt Q9NWZ3). As to the kind of experiment: IRAK4 Inhibition Assay. Format: biochemical. As to conditions: ATP 500 μM; IRAK4 0.6 nM; 60 min at room temperature. As to the method: The assays were performed in U-bottom 384-well plates. […] The reaction was initiated by the combination of IRAK4 with substrates and test compounds. The reaction was incubated at room temperature for 60 min. and terminated by adding 45 μL of 35 mM EDTA to each sample. The reaction mixture was analyzed on the Caliper LABCHIP® 3000 (Caliper, Hopkinton, Mass.) by electrophoretic separation of the fluorescent substrate and phosphorylated product.

Molecules are shown by their SMILES. Like-named read-outs stand apart in the source and are kept apart here.

Broadly, the IC50 is the concentration that inhibits the measured activity by half.

IRAK4, sequence (Q9NWZ3 whole entry, species assumed): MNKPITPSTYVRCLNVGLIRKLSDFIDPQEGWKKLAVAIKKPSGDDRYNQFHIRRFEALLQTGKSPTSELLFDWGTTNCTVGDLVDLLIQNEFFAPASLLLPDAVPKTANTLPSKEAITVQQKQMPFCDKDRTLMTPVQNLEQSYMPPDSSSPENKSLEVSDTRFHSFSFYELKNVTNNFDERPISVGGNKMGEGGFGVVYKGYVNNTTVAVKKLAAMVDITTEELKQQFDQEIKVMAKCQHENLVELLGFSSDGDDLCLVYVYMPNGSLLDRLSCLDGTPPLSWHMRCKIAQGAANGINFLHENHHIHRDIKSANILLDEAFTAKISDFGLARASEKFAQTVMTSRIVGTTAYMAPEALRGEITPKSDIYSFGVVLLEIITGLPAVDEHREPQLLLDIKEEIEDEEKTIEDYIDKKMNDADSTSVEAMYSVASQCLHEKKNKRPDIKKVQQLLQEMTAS

As to `CC(C)(O)[C@H](F)CNC(=O)c1cnc(Nc2ccc3nsnc3c2)cc1N[C@@H](c1ccccc1)[C@H](O)CO` [Example 102], the half-inhibitory concentration (IC50) in test [1] (Homo sapiens, PBMC, 5 h) was determined as 312 nM; in test [2] it was 2.9 nM.
In the same order, the values of `CC(C)(C)CNc1cc(Nc2ccc3nccnc3c2)ncc1C(=O)NC[C@@H](F)C(C)(C)O` [Example 103] are 411 nM and 13.4 nM.
Regarding `CC1CCCC1Nc1cc(Nc2ccc3ncsc3c2)ncc1C(=O)NC[C@@H](F)C(C)(C)O` (stereo partly drawn) [Example 104], the concentration for half-maximal inhibition (IC50) came out at 350 nM in test [1] (Homo sapiens, PBMC, 5 h) and 2.5 nM in test [2].
Take `CC1CCCC1Nc1cc(Nc2ccc3ncsc3c2)ncc1C(=O)NC[C@@H](F)C(C)(C)O` (stereo partly drawn) [Example 105]: the figures for the IC50 in test [1] and in test [2] were 321 nM and 1.9 nM, respectively.
Turning to `CC(Nc1cc(Nc2ccc3ncsc3c2)ncc1C(=O)NC[C@@H](F)C(C)(C)O)C1CC1` (stereo partly drawn) [Example 106], the concentration for half-maximal inhibition (IC50) turned out to be 570 nM in test [1] (Homo sapiens, PBMC, 5 h) and 58 nM in test [2].
Consider `CC(C)(O)[C@H](F)CNC(=O)c1cnc(Nc2ccc3ncsc3c2)cc1NCC(F)(F)C(C)(C)O` [Example 107], for which the IC50 in test [1] (Homo sapiens, PBMC, 5 h) turned out to be 174 nM; in test [2], 3.9 nM.
For the compound `CC(C)(O)[C@H](F)CNC(=O)c1cnc(Nc2ccc3ncsc3c2)cc1NC1C2CCCC21` (stereo partly drawn) [Example 108], the IC50 amounted to 507 nM in test [1] (Homo sapiens, PBMC, 5 h) and 2.3 nM in test [2].
On to `CC(C)(O)[C@H](F)CNC(=O)c1cnc(Nc2ccc3ncsc3c2)cc1NC1C2CCCC21` (stereo partly drawn) [Example 109], for which the IC50 was 454 nM in test [1] and 5.8 nM in test [2].
For `CC(C)(O)[C@H](F)CNC(=O)c1cnc(Nc2ccc3ncoc3c2)cc1NCC(F)(F)F` [Example 110], the concentration for half-maximal inhibition (IC50) in test [1] (Homo sapiens, PBMC, 5 h) worked out at 728 nM; in test [2] it was 12.6 nM.
Consider `CC(C)Nc1cc(Nc2ccc3nnccc3c2)ncc1C(=O)NC[C@@H](F)C(C)(C)O` [Example 119], for which the IC50 stood at 587 nM in test [1] (Homo sapiens, PBMC, 5 h) and 21.7 nM in test [2].
For `CC(C)Nc1cc(Nc2cc(F)c3ncsc3c2)ncc1C(=O)NC[C@@H](F)C(C)(C)O` [Example 120], the 50% inhibitory concentration (IC50) was determined as 459 nM in test [1] (Homo sapiens, PBMC, 5 h) and 5.9 nM in test [2].
In the case of `CC(C)(O)[C@H](F)CNC(=O)c1cnc(Nc2ccc3ncsc3c2)cc1NC1CC(F)(F)C1` [Example 121], the IC50 is 345 nM in test [1] (Homo sapiens, PBMC, 5 h) and 2 nM in test [2].
With `CC(C)(O)[C@H](F)CNC(=O)c1cnc(Nc2ccc3ncccc3n2)cc1NC1CC1` [Example 122], the 50% inhibitory concentration (IC50) in test [1] (Homo sapiens, PBMC, 5 h) came out at 207 nM; in test [2], 4.2 nM.
With `CC(C)Nc1cc(Nc2ccc3ncccc3n2)ncc1C(=O)NC[C@@H](F)C(C)(C)O` [Example 123], the IC50 in test [1] (Homo sapiens, PBMC, 5 h) was determined as 271 nM; in test [2] it was 3.6 nM.
As to `COc1ncnc2ccc(Nc3cc(NC4CCOCC4)c(C(=O)NC[C@@H](F)C(C)(C)O)cn3)cc12` [Example 124], the IC50 in test [1] (Homo sapiens, PBMC, 5 h) came to 420 nM; in test [2], 3.9 nM.
In the case of `CCNc1cc(Nc2ccc3ncnc(OC)c3c2)ncc1C(=O)NC[C@@H](F)C(C)(C)O` [Example 125], the 50% inhibitory concentration (IC50) was found to be 779 nM in test [1] (Homo sapiens, PBMC, 5 h) and 13.4 nM in test [2].
As to `CC(C)(F)CNc1cc(Nc2ccc3ncsc3c2)ncc1C(=O)NC[C@@H](F)C(C)(C)O` [Example 126], the concentration for half-maximal inhibition (IC50) in test [1] (Homo sapiens, PBMC, 5 h) worked out at 102 nM; in test [2], 1.5 nM.
For `CC(C)(F)CNc1cc(Nc2ccc3ncccc3c2)ncc1C(=O)NC[C@@H](F)C(C)(C)O` [Example 127], in that order: 472 nM and 4.1 nM.
For the compound `COc1ncnc2ccc(Nc3cc(NC4CC4)c(C(=O)NC[C@@H](F)C(C)(C)O)cn3)cc12` [Example 128], the IC50 amounted to 391 nM in test [1] (Homo sapiens, PBMC, 5 h) and 10.4 nM in test [2].
Take `CC(C)(O)[C@H](F)CNC(=O)c1cnc(Nc2ccc3ncsc3c2)cc1NCCC1CC1` [Example 129]: the 50% inhibitory concentration (IC50) came to 143 nM in test [1] (Homo sapiens, PBMC, 5 h) and 2.6 nM in test [2].
Regarding `CC(C)Nc1cc(Nc2ccc3ncoc3c2)ncc1C(=O)NC[C@@H](F)C(C)(C)O` [Example 130], the half-maximal inhibitory concentration (IC50) is 231 nM in test [1] (Homo sapiens, PBMC, 5 h) and 2.6 nM in test [2].
On to `CC(C)(O)[C@H](F)CNC(=O)c1cnc(Nc2ccc3ncsc3c2)cc1NC12CCC(O)(CC1)C2` [Example 133], for which the half-inhibitory concentration (IC50) in test [1] (Homo sapiens, PBMC, 5 h) was found to be 230 nM; in test [2], 2 nM.
As for `CC(C)(F)CNc1cc(Nc2ccc3ncccc3n2)ncc1C(=O)NC[C@@H](F)C(C)(C)O` [Example 134], the half-maximal inhibitory concentration (IC50) in test [1] (Homo sapiens, PBMC, 5 h) was 447 nM; in test [2], 8.8 nM.
Regarding `CCC(C)Nc1cc(Nc2ccc3ncsc3c2)ncc1C(=O)NC[C@@H](F)C(C)(C)O` (stereo partly drawn) [Example 137], the IC50 in test [1] (Homo sapiens, PBMC, 5 h) was 528 nM; in test [2], 3.6 nM.
With `CCC(C)Nc1cc(Nc2ccc3ncsc3c2)ncc1C(=O)NC[C@@H](F)C(C)(C)O` (stereo partly drawn) [Example 138], the IC50 in test [1] came to 302 nM; in test [2] it was 1.9 nM.
As to `CC(=O)NC12CCC(Nc3cc(Nc4ccc5ncsc5c4)ncc3C(=O)NC[C@@H](F)C(C)(C)O)(CC1)C2` [Example 139], the half-inhibitory concentration (IC50) in test [1] (Homo sapiens, PBMC, 5 h) was 310 nM; in test [2] it was 3.1 nM.
With `CC(C)(O)[C@H](F)CNC(=O)c1cnc(Nc2ccc3ncsc3c2)cc1NC12CCC(N)(CC1)C2` [Example 140], the IC50 worked out at 219 nM in test [1] (Homo sapiens, PBMC, 5 h) and 2.3 nM in test [2].
For `CC(C)(O)[C@H](F)CNC(=O)c1cnc(Nc2ccn3nccc3n2)cc1NC12CCC(O)(CC1)C2` [Example 141], in that order: 279 nM and 2.2 nM.
For `CCNC(=O)c1cnc(Nc2ccc3ncsc3c2)cc1N[C@@H](c1ccccc1)[C@H](O)CO` [Example 144], in that order: 199 nM and 7.4 nM.
As for `CN1CCCC1CCNC(=O)c1cnc(Nc2ccc3ncsc3c2)cc1NC1CCCC1` (stereo not drawn) [Example 149], the IC50 in test [1] (Homo sapiens, PBMC, 5 h) was found to be 386 nM; in test [2], 3.8 nM.
Regarding `O=C(NC[C@@H](F)CO)c1cnc(Nc2ccc3ncsc3c2)cc1NC1CCCC1` [Example 150], the half-inhibitory concentration (IC50) in test [1] (Homo sapiens, PBMC, 5 h) turned out to be 395 nM; in test [2] it was 5.9 nM.
In the same order, the values of `O=C(NCCN1CCCC1)c1cnc(Nc2ccc3ncsc3c2)cc1NC1CCCC1` [Example 151] are 191 nM and 4.2 nM.
As to `CC(=O)NCCNC(=O)c1cnc(Nc2ccc3ncsc3c2)cc1NC1CCCC1` [Example 152], the concentration for half-maximal inhibition (IC50) in test [1] (Homo sapiens, PBMC, 5 h) was 596 nM; in test [2], 7.5 nM.
Consider `O=C(NCCN1CCOCC1)c1cnc(Nc2ccc3ncsc3c2)cc1NC1CCCC1` [Example 154], for which the IC50 in test [1] (Homo sapiens, PBMC, 5 h) was found to be 535 nM; in test [2] it was 6.8 nM.
As for `O=C(Nc1ccc(Cn2cncn2)cc1)c1cnc(Nc2ccc3ncsc3c2)cc1NC1CCCC1` [Example 156], the IC50 in test [1] (Homo sapiens, PBMC, 5 h) was 502 nM; in test [2], 9.9 nM.
With `O=C(NC1CCC(O)CC1)c1cnc(Nc2ccc3ncsc3c2)cc1NC1CCCC1` (stereo not drawn) [Example 157], the concentration for half-maximal inhibition (IC50) came to 836 nM in test [1] (Homo sapiens, PBMC, 5 h) and 4.2 nM in test [2].
On to `CCCNc1cc(Nc2ccc3ncsc3c2)ncc1C(=O)NC[C@@H](F)C(C)(C)O` [Example 159], for which the IC50 in test [1] (Homo sapiens, PBMC, 5 h) came to 146 nM; in test [2], 3.2 nM.
For `CCCCNc1cc(Nc2ccc3ncsc3c2)ncc1C(=O)NC[C@@H](F)C(C)(C)O` [Example 160], the IC50 in test [1] (Homo sapiens, PBMC, 5 h) came to 109 nM; in test [2], 4.8 nM.
For the compound `CC(C)(O)[C@H](F)CNC(=O)c1cnc(Nc2ccc3ncsc3c2)cc1NCCO` [Example 161], the IC50 in test [1] (Homo sapiens, PBMC, 5 h) was found to be 577 nM; in test [2], 17.9 nM.
As for `CC(C)CNc1cc(Nc2ccc3ncsc3c2)ncc1C(=O)NC[C@@H](F)C(C)(C)O` [Example 162], the IC50 turned out to be 48 nM in test [1] (Homo sapiens, PBMC, 5 h) and 3.6 nM in test [2].
Consider `CC(C)(O)[C@H](F)CNC(=O)c1cnc(Nc2ccc3ncsc3c2)cc1NCCN1CCOCC1` [Example 164], for which the 50% inhibitory concentration (IC50) in test [1] (Homo sapiens, PBMC, 5 h) turned out to be 388 nM; in test [2], 34.9 nM.
In the same order, the values of `CC(C)(O)[C@H](F)CNC(=O)c1cnc(Nc2ccc3ncsc3c2)cc1NCCc1ccccc1` [Example 165] are 386 nM and 9 nM.
Consider `Cc1ccccc1CNc1cc(Nc2ccc3ncsc3c2)ncc1C(=O)NC[C@@H](F)C(C)(C)O` [Example 166], for which the 50% inhibitory concentration (IC50) in test [1] (Homo sapiens, PBMC, 5 h) is 266 nM; in test [2], 8.4 nM.
As for `CC(C)(O)[C@H](F)CNC(=O)c1cnc(Nc2ccc3ncsc3c2)cc1NCc1ccc(Cl)cc1` [Example 167], the half-maximal inhibitory concentration (IC50) in test [1] (Homo sapiens, PBMC, 5 h) stood at 526 nM; in test [2], 9.8 nM.
In the case of `COc1ccc(CNc2cc(Nc3ccc4ncsc4c3)ncc2C(=O)NC[C@@H](F)C(C)(C)O)cc1` [Example 168], the concentration for half-maximal inhibition (IC50) in test [1] (Homo sapiens, PBMC, 5 h) worked out at 565 nM; in test [2] it was 13.4 nM.
As for `CC1(O)CCC(NC(=O)c2cnc(Nc3ccc4ncsc4c3)cc2NC2CC2)CC1` (stereo not drawn) [Example 169, 6-(benzo[d]thiazol-6-ylamino)-4-(cyclopropylamino)-N-(4-hydroxy-4-methylcyclohexyl)nicotinamide], the IC50 in test [1] (Homo sapiens, PBMC, 5 h) was 480 nM; in test [2], 2.8 nM.
As to `CC(C)(O)C(F)(F)CNC(=O)c1cnc(Nc2ccc3ncsc3c2)cc1NC1CC1` [Example 170], the half-maximal inhibitory concentration (IC50) was 477 nM in test [1] (Homo sapiens, PBMC, 5 h) and 5.9 nM in test [2].
Consider `CC(C)Nc1cc(Nc2ccc3ncsc3c2)ncc1C(=O)NCC(F)(F)C(C)(C)O` [Example 171], for which the 50% inhibitory concentration (IC50) in test [1] (Homo sapiens, PBMC, 5 h) was determined as 571 nM; in test [2] it was 4.3 nM.
With `CC(C)Nc1cc(Nc2ccc3ncsc3c2)ncc1C(=O)NC1CCCC(CO)C1` (stereo not drawn) [Example 172], the figures for the IC50 in test [1] and in test [2] were 300 nM and 6.7 nM, respectively.
Regarding `CC(C)Nc1cc(Nc2ccc3ncsc3c2)ncc1C(=O)NC1CCCC(CO)C1` (stereo not drawn) [Example 173], the IC50 was determined as 696 nM in test [1] and 9.3 nM in test [2].
In the case of `CC(C)Nc1cc(Nc2ccc3ncsc3c2)ncc1C(=O)NCC[C@@H](C)NC(=O)OC(C)(C)C` [Example 175], the 50% inhibitory concentration (IC50) in test [1] (Homo sapiens, PBMC, 5 h) worked out at 402 nM; in test [2], 5.1 nM.
